Results on 2 compounds are retold here after US20130165368A1, “ANTIMICROBIAL COMPOUNDS” (priority 2010, published 2013).

The structures appear in SMILES notation. Values after ≈ are worked out from the molar mass of the structure shown. A value given as a limit tells only on which side of the number the result lay.

One series concerns Propionibacteria. Kind of series: MIC with Propionibacteria (Table X). To be noted: 48 h, 48 hours at 37° C., anaerobic. Type of series: cell-based. How it is done: (§1) Further experiments have also been conducted to determine the MIC of a number of other compositions as follows. The experimental procedure followed is the same as that initially described at the beginning of this Examples and Data section of the specification, except where indicated below.
The results were obtained following incubation for 48 hours at 37° C. in anaerobic conditions.

The subject of a further series is yeasts. Kind of series: MIC with yeasts (Table XI). Conditions: 48 h, 48 hours at 37° C., aerobic. Type of series: cell-based. How it is done: as §1
The results were obtained following incubation for 48 hours at 37° C. in aerobic conditions.

Series [1] deals with Respiratory Syncytial Virus (RSV), strain A2. Put plainly: Antiviral: cytopathic effect of RSV on A549 cells. To be noted: for Cytopathic effect (cpe): added 1 hour after virus absorption, 96 hours at 33° C., versus untreated lane. The format is cell-based. How it is done: (§2) A549 (ATCC CCL-185) cells were plated onto a 96 well and allowed to attach overnight, the wells were washed, and 100 ul of DMEM (Gibco) with 2% FCS was added. To the first column of the data set below, 100 μl of neat virus was added. The virus used was Respiratory Syncytial Virus (RSV), strain A2, a common laboratory strain which retains the ability to infect animal models.
(§3) A two serial dilution was performed (up to column 10), lanes 11+12 were uninfected controls, but relevant lanes contained the appropriate concentration of Laureth 4, laureth 4 was added 1 hour after virus absorption. The alkoxylated alkanol compounds used in the experiment were ‘high purity’, i.e. having a GC purity of at least 97%.
(§4) After 96 hours incubation at 33° C. the medium was removed, cell washed with PBS and stained with methylene blue (Gibco). Cytopathic effect (cpe) was noted visually and wells marked either as positive or negative when view under a light microscope at 4× magnification.
(Cytopathic effects are the visible damage that an infection or toxin causes in cultured cells.)

For series [2], the system named is A549 (ATCC CCL-185) cells. The format is cell-based. The procedure:
as §2, §3, §4

For a further series, the system named is MRSA NCTC 11939. Kind of series: Synergy testing: disc susceptibility, zone of inhibition on agar containing Laureth derivative. Conditions: MRSA NCTC 11939, disc test. Type of series: cell-based, Staphylococcus aureus. The procedure:
There now follows data relating to a screen for synergistic interaction between Laureth derivatives [C12E1 to C12E8] and 12 conventional anti-staphylococcal agents.
Ethoxylated Lauryl Alcohol Derivative Preparation As plates containing quarter strength of the MIC of NCTC 11939 are needed, and therefore very small weights of each compound, they were prepared at twenty time strength in 20 mL volumes in plastic universals. Once prepared these solutions were diluted […] by adding 1 mL to 1 mL SDW, resulting a 2 mL volume at ten times strength. This was undertaken in duplicate to create two identical plates.
IST was prepared as previously stated in above. 18 mL agar was added to each universal and then poured into sterile Petri dishes. Control plates were prepared as stated above
A 0.5 McFarland suspension of MRSA NCTC 11939 was prepared using SDW. This was then adjusted to a concentration of 1.5×107 by adding 200 μL to 1.8 mL of SDW. Once diluted, a sterile cotton swab was used to spread the suspension evenly across the entire surface of each agar plate.
Twelve antibiotics discs were added to the plates, 6 per plate in a circle. The plates were then incubated aerobically at 37° C.
The diameter of the zones of clearance were measured and recorded in millimetres. The zones for each compound were compared to the control and to BSAC breakpoints.
A variation of zone size within 2 mm is within acceptable limits of assay reproducibility.

With `CCCCCCCCCCCCOCCOCCOCCOCCO` [L4, Tetraethylene Glycol Monododecyl Ether], the MIC (commonly the lowest concentration found to suppress growth) in the series with Propionibacteria (Propionibacterium granulosum 354039G) was 440 µM (≈ 160 µg/mL); in the series with Propionibacteria (Propionibacterium granulosum 354043J), 440 µM (≈ 160 µg/mL); against Propionibacteria (Propionibacterium granulosum 354044V), 880 µM (≈ 319 µg/mL); against Propionibacteria (Propionibacterium species 387327Y), 440 µM (≈ 160 µg/mL); against Propionibacteria (certain of the Propionibacteria tested) it was less than 880 µM; in the series on Propionibacteria (Cutibacterium acnes, Propionibacterium acnes 737) it was 880 µM (≈ 319 µg/mL). Also, the minimal inhibitory concentration (MIC) is 880 µM (≈ 319 µg/mL) in the series on Propionibacteria (Cutibacterium avidum, Propionibacterium avidum 340090P); 880 µM (≈ 319 µg/mL) in the series with Propionibacteria (Cutibacterium avidum, Propionibacterium avidum 340093T); 880 µM (≈ 319 µg/mL) with Propionibacteria (Cutibacterium avidum, Propionibacterium avidum 340097V); 880 µM (≈ 319 µg/mL) against Propionibacteria (Cutibacterium avidum, Propionibacterium avidum 354020J); 880 µM (≈ 319 µg/mL) in the series on Propionibacteria (Cutibacterium avidum, Propionibacterium avidum 354025L); more than 220 µM against yeasts (Candida guilliemondii 380022E). Besides, the MIC in the series on yeasts (Candida lustaniae 458891B) was more than 220 µM; in the series with yeasts (all of the yeasts tested) it was less than 880 µM; in the series on yeasts (Candida albicans, Candida albicans 383107), more than 220 µM; in the series with yeasts (Candida albicans, Candida albicans 384403C) it was 220 µM (≈ 79.8 µg/mL); against yeasts (Candida albicans, Candida albicans 457932F) it was more than 220 µM; in the series on yeasts (Candida albicans, Candida albicans 464644V) it was 220 µM (≈ 79.8 µg/mL). The minimal inhibitory concentration (MIC) was 110 µM (≈ 39.9 µg/mL) against yeasts (Candida albicans, Candida albicans 540668D); 220 µM (≈ 79.8 µg/mL) with yeasts (Candida albicans, Candida albicans 540992V); more than 220 µM in the series on yeasts (Candida albicans, Candida albicans 561251J); 110 µM (≈ 39.9 µg/mL) with yeasts (Candida dubliniensis, Candida dubliniensis 383086P); more than 220 µM against yeasts (Candida tropicalis, Candida tropicalis 470273M); 55 µM (≈ 19.9 µg/mL) with yeasts (Kluyveromyces marxianus, Candida kefyr 337838T). The MIC with yeasts (Lodderomyces parapsilosis, Candida parapsilosis 381611V) was more than 220 µM; in the series with yeasts (Lodderomyces parapsilosis, Candida parapsilosis 547133B), more than 220 µM; against yeasts (Nakaseomyces glabratus, Candida glabrata 437713D), more than 220 µM; with yeasts (Nakaseomyces glabratus, Candida glabrata 882870Q), more than 220 µM; in the series with yeasts (Pichia kudriavzevii, Candida krusei 378573D) it was more than 220 µM. Besides, the “Cytopathic effect (cpe)” value in series [1] (0.01 mM) and in series [1] (0.1 mM) was “significantly reduced” each time. In addition, in series [1] (RSV A2 on A549 cells), the “cytopathic effect of the virus on the cells (overall)” value is reported as “can alleviate the cytopathic effect”. In addition, the “state of treated, uninfected cells” value in series [2] is “healthy and showed little cellular apathy”.

As to `CCCCCCCCCCCCOCCOCCOCCOCCOCCOCCOCCOCCO` [L8, Octaethylene Glycol Monododecyl Ether], in the series with MRSA NCTC 11939, the “susceptibility to various other agents in the presence of Laureth derivative” value was “slight increase in susceptibility”.
